According to patent publication US20090298938A1, “USE OF SEMI SYNTHETIC ANALOGUES OF BOSWELLIC ACIDS FOR ANTICANCER ACTIVITY” (COUNCIL OF SCIENTIFIC & INDUSTRIAL RESEARCH, priority 2008, published 2009):

What was measured:
[1] = system: HT-29 colon cancer cells; assay: In vitro cytotoxicity, SRB assay, HT-29; format: cell-based, human; conditions: Table 2
Procedure: (§1) The semi-synthetic analogues of formula 1 have been subjected to in vitro cytotoxicity screening in a panel of human cancer cell lines using following methodology. The human cancer cell lines were obtained either from National Center for Cell Science, Pune or National Cancer Institute, Fredrick, Md., USA. Cells were grown in tissue culture flasks in complete growth medium (RPMI-1640 medium with 2 mM glutamine, 100 µg/ml streptomycin, pH 7.4, sterilized by filtration and supplemented with 10% sterilized fetal calf serum and 100 units/ml penicillin before use) at 37° C. in an atmosphere of 5% CO2 and 90% relative humidity in a carbon dioxide incubator. The cells at sub-confluent stage were harvested from flask by treatment with trypsin (0.05% trypsin in PBS containing 0.02% EDTA) and suspended in complete growth medium. Cells with cell viability of more than 97% by trypan blue exclusion technique were used for determination of cytotoxicity.
(§2) Test material were dissolved in DMSO (dimethyl sulphoxide) to obtain a stock solution of 2×10^−2M. The stock solution was serially diluted with complete growth medium containing 50 μg/ml of gentamycin to obtain working test solutions of required concentrations.
(§3) The suspension of human cancer cell lines of required cell density in complete growth medium was prepared and cell suspension (100 μl/well) of each cell line was added to wells of 96-well tissue culture plate. Suitable blanks and controls were also included. The plates were incubated for 24 hrs in a carbon dioxide incubator.
(§4) The working test solutions of different concentrations (100 μl/well) were added after 24 hr incubation. The plates were further incubated for 48-hrs after addition of the test materials. After incubation, the cell growth was stopped by gently layering of 50 μl of TCA (50% trichloroacetic acid) on top of the medium in all the wells. The plates were incubated at 4° C. for one hour to fix the cells attached to bottom of the wells. Liquids of all the wells were gently pipetted out and discarded. The plates were washed five times with distilled water to remove TCA, growth medium, low molecular weight metabolites, serum proteins etc. The plates were air dried.
(§5) Cell growth was measured by staining with sulforhodamine B dye (SRB). The SRB solution (100 μl, 0.4% in 1% acetic acid) was added to each well and the plates were incubated at room temperature for 30 minutes. The unbound SRB was quickly removed by washing the wells five times with 1% acetic acid solution and plates were air dried. Tris buffer (100 μl, 0.01 M, pH 10.4) was added to all the wells and plates were gently stirred for 5 minutes on a mechanical stirrer. The optical density was recorded on ELISA reader at 540 nm.
(§6) Cell growth in the presence of test material was calculated in terms of the percentage of growth inhibition. The in vitro cytotoxicity of four natural boswellic acid i.e. boswellic acid, acetyl boswellic acid, 11-keto-boswellic acids, acetyl-11-ketio-boswellic acid on various cancer cell lines has been examined and typical results are given in the succeeding table. Based on their cytotoxicity profile the analogues of formula 1 were studied for inhibition of cell proliferation by using MTT assay method. […] The induction of apoptosis in HL-60 cells was also validated by generation of DNA fragmentation.
(§7) Assay of cytotoxicity potential of test materials is a primary standard procedure for seeking lead molecules for development of anti-cancer leads. Human cancer cells after trypsinization into single cell suspension were grown in 96-well culture plate for 24 hr. Cells were treated with indicated doses of test analogues and incubated in CO2 incubator for 48 hr. Thereafter, cells were stained with sulforhodamine B dye, and the bound dye was eluted to measure the optical density indicating cell growth in Elisa Reader at 540 nm [Monks et al., 1991]. […]

[2] = system: SW-620 colon cancer cells; assay: In vitro cytotoxicity, SRB assay, SW-620; format: cell-based, human; conditions: Table 2
Procedure: as §1, §2, §3, §4, §5, §6, §7

[3] = system: Colo-205 colon cancer cells; assay: In vitro cytotoxicity, SRB assay, Colo-205; format: cell-based, human; conditions: Table 2
Procedure: as §1, §2, §3, §4, §5, §6, §7

[4] = system: Hep-2 cells; assay: In vitro cytotoxicity, SRB assay, Hep-2; format: cell-based, human; conditions: Table 2
Procedure: as §1, §2, §3, §4, §5, §6, §7

[5] = system: PC-3 cells; assay: In vitro cytotoxicity, SRB assay, PC-3; format: cell-based, human; conditions: Table 2
Procedure: as §1, §2, §3, §4, §5, §6, §7

[6] = system: Ehrlich Ascitic Carcinoma solid tumor; assay: Ehrlich ascitic tumor (solid) growth inhibition in mice; format: in vivo, Swiss albino mice; conditions: 22 mg/kg intraperitoneally, 9 days, evaluated day 13, positive control
Procedure: FIG. 9. Tumor growth inhibition by boswellic acid analogs. Mice treated intraperitoneally with a compound (designated “c”) of formula 1, wherein R3=COCH2CH2CH3, R1=H, R4+R5=O, have shown 22% tumor growth inhibition at a dose of about 50 mg/kg of body weight, and 41% tumor growth inhibition at a dose of 100 mg/kg of body weight.
Swiss albino mice of 6-8 weeks, weighing 18-23 g of single sex were used. For the initiation of experiment, 1×10^7 cells of EAC (Ehrlich Ascitic Carcinoma) cells were transplanted intramuscularly (i.m.) in 32 mice for the development of solid tumors. The day of tumor transplantation was assigned as day 0. Next day (day-1) animals were randomly selected and divided into four groups having equal number of mice in each group of similar body wt. Groups I and II were treated with compound of formula 1 where R3=COCH2CH2CH3, R1=H, R4+R5=O at the dose of 50 mg/kg b, wt and 100 mg/kg b. wt. intraperitoneally, respectively. Group III received 0.2 ml of 0.85% normal saline and served as normal control while group IV serving as positive control was treated with 5-FU (22 mg/kg b. wt.) intraperitoneally. The total duration of treatment was of 9 days. The evaluation of effect of treatment on tumor was done on 13th day. Ehrlich ascites cells (1×10^7) were injected intramuscularly in the right thigh muscles and on the following day animals started receiving treatment intraperitoneally in 0.5% Tween-20 daily at the indicated doses for 9 days. The growth of tumor and the efficacy of compound of formula 1, where R3=COCH2CH2CH3, R1=H, R4+R5=O in inhibiting tumor growth were evaluated on day 13 in terms of the weight of the tumor in treated and control groups count. The determination of solid tumor growth inhibition against EAT was calculated as percent tumor growth regression according to the following: […]

[7] = system: HL-60 cells; assay: Apoptosis induction, annexin V-FITC/PI flow cytometry; format: cell-based, human; conditions: HL-60, 15 μM, 6 hr
Procedure: FIG. 2. Comparative efficacy of apoptosis induction: Measurement by flow cytometry. The effects of boswellic acid on the relative efficiency of induction of apoptosis and necrosis in HL-60 cells were analyzed by flow cytometry. Cells were incubated with each analog for 6 hrs and stained with annexin V-FITC labeled. The dot plots are representative of one of the two separate experiments. Values in the lower right quadrant represent the apoptotic population in the UR as post-apoptotic and in the UL as necrotic. Where a=compound of formula 1, R3=COCH2CH2CH3, […], R4=[…], b=compound of formula 1, R3=COCH2CH3R1=H, R4=[…], c=compound of formula 1, R3=COCH2CH2CH3, […], R4+R5=O, d=compound of formula 1, […], R3=COCH2CH3, R4=[…], e=compound of formula 1, R3=COCH2CH2CH3, […], R4=[…], f=β-boswellic acid. Compounds of formula 1 where […], R3=COCH2CH3R3=[…]; R3=COCH2CH2CH3, […], R4=[…] and natural β-boswellic acid produced low level of apoptotic cell population (approx. 10%) compared to compound of formula 1 where R3=COCH2CH2CH3, […], R4=[…] (17%), […], R3=COCH2CH3, R4=[…] (30%) and where R3=COCH2CH2CH3, […], R4+R5=O (23%), although the combined apoptotic and post-apoptotic population was about 32% with the last three analogs. Confirmation that boswellic acid analogs are potent inducers of apoptosis may also be obtained from DNA fragmentation assay. During the early events of apoptosis, phospholipid phosphatidyl serine of plasma membrane is externalized, which has very high affinity for annexinV antibody. Effect of a single concentration (15 μM) of each boswellic acid analogs on the relative efficiency of induction of apoptosis and necrosis in HL-60 cells was analyzed by flow cytometry. Cells were incubated with each analog for 6 hr and stained with Annexin V-FITC/PI. Camptothecin at 4 μM was used as positive control. There after, cells were washed and stained with FITC conjugated annexinV antibody and propidium iodide. The cells (10,000) were analysed by flow cytometery (BD, LSR) using ProQuest software.

O=c1[nH]cc(F)c(=O)[nH]1 [Compound 5-FU, 5-FU, reference compound]
Growth inhibition % HT-29 Colon ([1]; Conc. 1 × 10^4): 21%
Growth inhibition % HT-29 Colon ([1]; Conc. 1 × 10^5): 40%
Growth inhibition % SW-620 Colon ([2]; Conc. 1 × 10^4): 7%
Growth inhibition % SW-620 Colon ([2]; Conc. 1 × 10^5): 0%
Growth inhibition % Colo-205 Colon ([3]; Conc. 1 × 10^4): 39%
Growth inhibition % Colo-205 Colon ([3]; Conc. 1 × 10^5): 43%
Growth inhibition % Hep-2 ([4]; Conc. 1 × 10^4): 5%
Growth inhibition % Hep-2 ([4]; Conc. 1 × 10^5): 14%
Growth inhibition % PC-3 ([5]; Conc. 1 × 10^4): 52%
Growth inhibition % PC-3 ([5]; Conc. 1 × 10^5): 37%
tumor growth inhibition [6]: 56%

CCC(=O)OC1CCC2(C)C(CCC3(C)C2CC=C2C4C(C)C(C)CCC4(C)CCC23C)C1(C)C(=O)O (stereo not drawn) [d]
combined apoptotic and post-apoptotic population [7]: about 32%
apoptotic cell population ([7]; listed as R1=H, R3=COCH2CH3, R4=R5=H): 30%

C[C@H]1[C@H](C)CC[C@]2(C)CC[C@]3(C)C(=CC[C@@H]4[C@@]5(C)CC[C@@H](O)[C@](C)(C(=O)O)[C@@H]5CC[C@]43C)[C@H]12 [β-boswellic acid, reference compound]
apoptotic cell population [7]: approx. 10%

CCC(=O)OC1CCC2(C)C(CCC3(C)C2CC=C2C4C(C)C(C)CCC4(C)CCC23C)C1(C)C(=O)O (stereo not drawn) [b]
apoptotic cell population ([7]; listed as R1=H, R3=COCH2CH3R3=R4=H): approx. 10%
